In ChEMBL document CHEMBL5653631, “A Potent and Selective ULK1 Inhibitor Suppresses Autophagy and Sensitizes Cancer Cells to Nutrient Stress” (iScience, 2018):
Blank lines part the entries; values can stand above or below the compound they belong to.

Tests used:
[1] = molecular target: Serine/threonine-protein kinase pim-2 (Homo sapiens) (UniProt Q9P1W9); test: Inhibition of human recombinant PIM2 at 500 nM related to control ULK1
[2] = molecular target: Calcium/calmodulin-dependent protein kinase type 1 (Homo sapiens) (UniProt Q14012); test: Inhibition of human recombinant CaMK1a at 500 nM in presence of ATP by radiometric assay relative to control
[3] = molecular target: Serine/threonine-protein kinase PAK 4 (Homo sapiens) (UniProt O96013); test: Inhibition of human recombinant PAK4 at 500 nM in presence of ATP by radiometric assay relative to control
[4] = molecular target: Platelet-derived growth factor receptor alpha (Homo sapiens) (UniProt P16234); test: Inhibition of human recombinant PDGFRa at 40 nM related to control ULK1
[5] = molecular target: T1, Eukaryotic elongation factor 2 kinase (Homo sapiens) (UniProt O00418); test: Inhibition of human recombinant eEF2K at 15 nM in presence of ATP by radiometric assay relative to control
T1 sequence (whole entry): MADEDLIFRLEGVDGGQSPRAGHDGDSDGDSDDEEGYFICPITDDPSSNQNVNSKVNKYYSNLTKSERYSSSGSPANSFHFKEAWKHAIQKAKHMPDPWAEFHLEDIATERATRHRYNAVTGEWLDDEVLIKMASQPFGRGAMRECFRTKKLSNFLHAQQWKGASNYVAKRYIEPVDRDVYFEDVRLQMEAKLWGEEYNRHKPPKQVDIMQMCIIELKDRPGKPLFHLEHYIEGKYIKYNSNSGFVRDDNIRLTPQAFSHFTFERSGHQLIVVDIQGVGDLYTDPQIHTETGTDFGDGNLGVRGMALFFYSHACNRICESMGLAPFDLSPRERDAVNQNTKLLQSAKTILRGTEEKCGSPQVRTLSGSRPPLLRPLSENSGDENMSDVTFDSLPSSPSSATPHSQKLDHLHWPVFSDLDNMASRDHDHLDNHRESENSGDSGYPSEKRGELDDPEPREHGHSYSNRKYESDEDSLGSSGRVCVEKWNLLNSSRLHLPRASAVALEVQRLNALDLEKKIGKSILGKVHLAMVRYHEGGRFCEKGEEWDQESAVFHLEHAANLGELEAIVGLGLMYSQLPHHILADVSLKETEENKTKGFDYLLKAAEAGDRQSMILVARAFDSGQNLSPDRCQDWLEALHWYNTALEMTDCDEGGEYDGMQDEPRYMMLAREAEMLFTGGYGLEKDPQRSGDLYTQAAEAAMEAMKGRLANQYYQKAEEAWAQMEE

[6] = molecular target: T2, NUAK family SNF1-like kinase 1 (Homo sapiens) (UniProt O60285); test: Inhibition of human recombinant NuaK1 at 15 nM in presence of ATP by radiometric assay relative to control
T2 sequence (whole entry): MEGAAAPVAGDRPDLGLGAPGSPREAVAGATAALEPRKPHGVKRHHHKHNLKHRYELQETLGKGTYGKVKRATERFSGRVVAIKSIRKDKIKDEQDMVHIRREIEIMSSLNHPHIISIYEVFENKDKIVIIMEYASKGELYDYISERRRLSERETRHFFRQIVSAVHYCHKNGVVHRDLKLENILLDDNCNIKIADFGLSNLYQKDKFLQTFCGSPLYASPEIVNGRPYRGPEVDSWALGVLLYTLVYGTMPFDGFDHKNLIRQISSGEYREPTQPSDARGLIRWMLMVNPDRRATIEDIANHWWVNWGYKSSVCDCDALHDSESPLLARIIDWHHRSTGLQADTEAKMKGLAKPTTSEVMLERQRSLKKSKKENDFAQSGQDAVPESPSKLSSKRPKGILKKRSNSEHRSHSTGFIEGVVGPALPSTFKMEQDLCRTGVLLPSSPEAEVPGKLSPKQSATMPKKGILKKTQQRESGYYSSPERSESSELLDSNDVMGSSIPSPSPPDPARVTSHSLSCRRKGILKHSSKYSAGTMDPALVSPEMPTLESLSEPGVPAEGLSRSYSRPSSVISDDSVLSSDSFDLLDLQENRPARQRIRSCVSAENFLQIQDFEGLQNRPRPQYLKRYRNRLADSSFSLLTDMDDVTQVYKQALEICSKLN

[7] = molecular target: T3, Serine/threonine-protein kinase DCLK3 (Homo sapiens) (UniProt Q9C098); test: Inhibition of human recombinant DCAMKL3 at 15 nM in presence of ATP by radiometric assay relative to control
T3 sequence (whole entry): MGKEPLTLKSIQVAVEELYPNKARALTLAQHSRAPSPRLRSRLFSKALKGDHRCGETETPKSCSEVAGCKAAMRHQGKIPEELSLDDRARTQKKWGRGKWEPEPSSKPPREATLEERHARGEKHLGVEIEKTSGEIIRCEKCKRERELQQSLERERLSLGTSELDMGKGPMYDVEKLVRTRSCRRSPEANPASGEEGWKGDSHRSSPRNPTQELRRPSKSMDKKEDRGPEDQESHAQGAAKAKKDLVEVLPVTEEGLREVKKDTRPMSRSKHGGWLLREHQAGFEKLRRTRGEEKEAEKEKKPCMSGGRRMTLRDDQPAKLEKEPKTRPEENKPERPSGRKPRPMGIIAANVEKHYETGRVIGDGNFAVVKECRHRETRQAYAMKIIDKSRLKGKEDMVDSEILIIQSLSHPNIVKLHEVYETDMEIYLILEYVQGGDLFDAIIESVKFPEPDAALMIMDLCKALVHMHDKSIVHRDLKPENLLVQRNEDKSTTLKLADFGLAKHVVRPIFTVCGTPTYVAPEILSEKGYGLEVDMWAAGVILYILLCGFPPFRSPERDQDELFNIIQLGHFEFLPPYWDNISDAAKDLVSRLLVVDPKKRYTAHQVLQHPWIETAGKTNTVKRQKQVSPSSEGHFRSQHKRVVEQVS

[8] = molecular target: Dual specificity mitogen-activated protein kinase kinase 1 (Homo sapiens) (UniProt Q02750); test: Inhibition of human recombinant MAP2K1 at 15 nM in presence of ATP by radiometric assay relative to control
Chain of Dual specificity mitogen-activated protein kinase kinase 1 (Homo sapiens) (Q02750 whole entry): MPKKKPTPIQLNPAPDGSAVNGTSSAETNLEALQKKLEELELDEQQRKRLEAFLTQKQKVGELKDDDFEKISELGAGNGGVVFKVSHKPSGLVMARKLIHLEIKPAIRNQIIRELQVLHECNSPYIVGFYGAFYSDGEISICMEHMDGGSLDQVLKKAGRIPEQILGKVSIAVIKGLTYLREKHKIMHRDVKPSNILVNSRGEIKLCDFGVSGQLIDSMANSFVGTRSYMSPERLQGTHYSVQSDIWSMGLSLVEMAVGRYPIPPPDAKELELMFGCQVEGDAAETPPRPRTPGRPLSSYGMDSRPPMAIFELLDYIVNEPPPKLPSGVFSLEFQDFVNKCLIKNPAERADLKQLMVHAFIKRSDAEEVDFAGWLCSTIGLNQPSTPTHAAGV

Chain of Serine/threonine-protein kinase PAK 4 (Homo sapiens) (O96013 whole entry, looked up): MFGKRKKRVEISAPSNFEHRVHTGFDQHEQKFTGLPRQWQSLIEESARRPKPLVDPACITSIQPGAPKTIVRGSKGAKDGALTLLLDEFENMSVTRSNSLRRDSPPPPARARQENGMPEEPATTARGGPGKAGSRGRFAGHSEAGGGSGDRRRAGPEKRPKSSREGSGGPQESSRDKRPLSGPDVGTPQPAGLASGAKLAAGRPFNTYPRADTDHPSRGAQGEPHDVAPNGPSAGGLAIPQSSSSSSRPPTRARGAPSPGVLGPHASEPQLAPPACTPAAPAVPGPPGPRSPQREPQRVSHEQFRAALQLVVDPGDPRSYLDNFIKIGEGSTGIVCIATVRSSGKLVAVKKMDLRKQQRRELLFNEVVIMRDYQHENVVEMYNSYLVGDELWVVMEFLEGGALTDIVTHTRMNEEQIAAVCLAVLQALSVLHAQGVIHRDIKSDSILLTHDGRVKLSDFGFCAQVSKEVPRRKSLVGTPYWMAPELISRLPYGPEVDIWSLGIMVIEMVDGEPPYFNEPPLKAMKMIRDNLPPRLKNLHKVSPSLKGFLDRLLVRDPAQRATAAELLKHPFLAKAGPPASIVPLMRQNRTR
Chain of Platelet-derived growth factor receptor alpha (Homo sapiens) (P16234 whole entry): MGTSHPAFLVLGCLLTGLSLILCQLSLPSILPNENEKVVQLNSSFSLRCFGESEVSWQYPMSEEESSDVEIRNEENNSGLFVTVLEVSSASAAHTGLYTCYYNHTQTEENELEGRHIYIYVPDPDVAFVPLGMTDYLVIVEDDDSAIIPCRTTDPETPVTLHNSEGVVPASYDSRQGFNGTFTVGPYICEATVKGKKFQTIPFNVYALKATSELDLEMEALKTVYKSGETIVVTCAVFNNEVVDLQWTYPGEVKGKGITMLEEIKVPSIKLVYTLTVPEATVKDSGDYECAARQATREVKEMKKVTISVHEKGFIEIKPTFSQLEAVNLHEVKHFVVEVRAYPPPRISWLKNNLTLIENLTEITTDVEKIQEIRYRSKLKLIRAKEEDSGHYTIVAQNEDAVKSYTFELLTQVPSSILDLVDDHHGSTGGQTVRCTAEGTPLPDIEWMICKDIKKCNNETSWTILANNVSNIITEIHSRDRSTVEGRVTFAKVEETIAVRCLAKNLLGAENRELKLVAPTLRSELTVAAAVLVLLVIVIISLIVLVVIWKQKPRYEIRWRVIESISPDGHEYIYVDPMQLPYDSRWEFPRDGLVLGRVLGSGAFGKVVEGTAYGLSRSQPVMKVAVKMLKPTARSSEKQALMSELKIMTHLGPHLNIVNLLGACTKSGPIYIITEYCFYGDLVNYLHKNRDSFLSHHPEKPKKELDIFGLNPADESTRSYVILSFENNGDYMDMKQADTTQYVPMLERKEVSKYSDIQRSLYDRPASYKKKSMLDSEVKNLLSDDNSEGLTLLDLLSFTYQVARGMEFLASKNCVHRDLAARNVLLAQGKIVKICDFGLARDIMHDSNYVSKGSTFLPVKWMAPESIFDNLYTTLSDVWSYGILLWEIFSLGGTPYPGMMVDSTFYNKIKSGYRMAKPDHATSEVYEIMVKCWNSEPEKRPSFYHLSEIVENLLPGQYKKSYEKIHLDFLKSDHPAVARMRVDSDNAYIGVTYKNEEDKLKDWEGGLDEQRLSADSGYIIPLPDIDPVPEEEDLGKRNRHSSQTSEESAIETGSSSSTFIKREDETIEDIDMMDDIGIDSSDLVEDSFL
Chain of Calcium/calmodulin-dependent protein kinase type 1 (Homo sapiens) (Q14012 whole entry, looked up): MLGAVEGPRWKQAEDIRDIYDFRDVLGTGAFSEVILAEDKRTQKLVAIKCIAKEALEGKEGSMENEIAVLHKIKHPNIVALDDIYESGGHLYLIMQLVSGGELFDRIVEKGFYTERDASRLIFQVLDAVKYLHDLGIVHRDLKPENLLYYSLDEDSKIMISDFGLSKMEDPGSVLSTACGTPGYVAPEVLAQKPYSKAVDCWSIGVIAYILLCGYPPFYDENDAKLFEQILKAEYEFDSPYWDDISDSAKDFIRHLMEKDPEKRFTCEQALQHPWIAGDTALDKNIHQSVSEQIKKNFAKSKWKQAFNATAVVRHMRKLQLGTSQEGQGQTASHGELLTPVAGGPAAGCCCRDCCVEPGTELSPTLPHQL
Chain of Serine/threonine-protein kinase pim-2 (Homo sapiens) (Q9P1W9 whole entry, looked up): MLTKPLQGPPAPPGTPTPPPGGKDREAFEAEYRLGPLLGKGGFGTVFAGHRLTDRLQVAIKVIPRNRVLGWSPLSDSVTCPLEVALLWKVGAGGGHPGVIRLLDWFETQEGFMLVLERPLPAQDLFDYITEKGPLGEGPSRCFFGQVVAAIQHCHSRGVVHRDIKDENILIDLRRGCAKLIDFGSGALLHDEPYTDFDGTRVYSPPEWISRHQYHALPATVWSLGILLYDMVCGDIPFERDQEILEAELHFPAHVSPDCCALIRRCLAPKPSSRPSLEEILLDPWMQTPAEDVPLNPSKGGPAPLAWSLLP

- fold change (FC) [1]: 0.03
- inhibition [2]: 0%
- inhibition [3]: 41%
Structure (SMILES): CNC(=O)c1ccccc1Oc1nc(Nc2cc(OC)c(OC)c(OC)c2)ncc1Br

- fold change (FC) [4]: 0
Structure (SMILES): O=C(N[C@@H](C1CC1)C(F)(F)F)c1cc(-c2cnn3cc(-c4ccc(F)cc4)cnc23)cs1

- inhibition [5]: 10%
- inhibition [6]: 27%
- inhibition [7]: 35%
- inhibition [8]: 7%
Structure (SMILES): CC(C)[C@H](NC(=O)c1cc(-c2cnn3cc(-c4ccc(OCCN5CCCCC5)cc4)cnc23)cs1)C(F)(F)F
